According to US20240384350A1, “METHODS OF TREATING CANCER WITH KINASE INHIBITORS” (BOARD OF REGENTS, THE UNIVERSITY OF TEXAS SYSTEM, priority 2021, published 2024):

How the values were obtained:
Test in all cases: Ba/F3 drug screening, Cell Titer Glo, IC50 Mut/WT
Type in all cases: cell-based
[1] = biological target: T1, EGFR L718V (Homo sapiens, UniProt P00533, L718V); conditions: PACC; L718V; Ba/F3; 72 hours
T1 construct: expressed in transfected cells; host or cells: Ba/F3

[2] = biological target: T2, EGFR L858R T790M L792H (Homo sapiens, UniProt P00533, L792H/L858R/T790M); conditions: T790M-like-3S, 72 hours
T2 construct: expressed in transfected cells; host or cells: Ba/F3

[3] = biological target: T3, EGFR Ex19del T790M (Homo sapiens, UniProt P00533, DEL746-750/T790M); conditions: T790M-like-3S, 72 hours
T3 construct: expressed in transfected cells; host or cells: Ba/F3

[4] = biological target: T4, EGFR L858R/L718V (Homo sapiens, UniProt P00533, L718V/L858R); conditions: PACC; L858R/L718V; Ba/F3; 72 hours
T4 construct: host or cells: Ba/F3
Protocol: (§1) Data represent the ratio of the IC50 value for a given TKI for cells with a PACC EGFR mutation to the IC50 value for cells with wildtype EGFR.
(§2) Ba/F3 cell generation, drug screening, and IC50 approximations. Ba/F3 cells were obtained as a gift from Dr. Gordon Mills (MD Anderson Cancer Center), and maintained in RPMI (Sigma) containing 10% FBS, 1% penicillin/streptomycin, and 10 ng/ml recombinant mIL-3 (R&D Biosystems). To establish stable Ba/F3 cell lines, Ba/F3 cells were transduced with retroviruses containing mutant EGFR plasmids for 12-24 hours.
(§3) After 48-72 hours of transduction, 2 μg/ml puromycin (Invitrogen) was added to Ba/F3 cell lines in complete RPMI. To select for EGFR positive cell lines, cells were stained with PE-EGFR (Biolegend) and sorted by FACS. After sorting, EGFR positive cells were maintained in RPMI containing 10% FBS, 1% penicillin/streptomycin, and 1 ng/ml EGF to support cell viability. Drug screening was performed as previously described^41,42. Shortly, cells were plated in 384-well plates (Greiner Bio-One) at 2000-3000 cells per well in technical triplicate. Seven different concentrations of TKIs or DMSO vehicle were added to reach a final volume of 40 μL per well. After 72 hours, 11 μL of Cell Titer Glo (Promega) was added to each well. Plates were incubated for a minimum of 10 minutes, and bioluminescence was determined using a FLUOstar OPTIMA plate reader (BMG LABTECH). Raw bioluminescence values were normalized to DMSO control treated cells, and values were plotted in GraphPad Prism. […] Drug screens were performed in technical triplicate on each plate and either duplicate or triplicate biological replicates.

[5] = biological target: T5, EGFR N771dupN (Homo sapiens, UniProt P00533, DUP771-771); conditions: Ex20, 72 hours
T5 construct: expressed in transfected cells; host or cells: Ba/F3 cells, retroviral pBabe-Puro vector

[6] = biological target: T6, EGFR Ex19del G796S (Homo sapiens, UniProt P00533, DEL746-750/G796S); conditions: PACC; Ex19del G796S; Ba/F3; 72 hours
T6 construct: expressed in transfected cells; host or cells: Ba/F3

[7] = biological target: T7, EGFR E709K L858R (Homo sapiens, UniProt P00533, E709K/L858R); conditions: Classical-Like, 72 hours
T7 construct: expressed in transfected cells; host or cells: Ba/F3 cells, retroviral pBabe-Puro vector

[8] = biological target: T8, EGFR G724S (Homo sapiens, UniProt P00533, G724S); conditions: PACC; G724S; Ba/F3; 72 hours
T8 construct: expressed in transfected cells; host or cells: Ba/F3
Protocol: as §1, §2, §3

[9] = biological target: T9, EGFR Ex19del T790M C797S (Homo sapiens, UniProt P00533, C797S/DEL746-750/T790M); conditions: T790M-like-3R, 72 hours
T9 construct: expressed in transfected cells; host or cells: Ba/F3

[10] = biological target: T10, EGFR S720P (Homo sapiens, UniProt P00533, S720P); conditions: Classical-Like, 72 hours
T10 construct: expressed in transfected cells; host or cells: Ba/F3 cells, retroviral pBabe-Puro vector (vector made by GeneScript from EGFR WT)

[11] = biological target: T11, EGFR Ex19del/T790M/L792H (Homo sapiens, UniProt P00533, DEL746-750/L792H/T790M); conditions: T790M-like-3R, 72 hours
T11 construct: expressed in transfected cells; host or cells: Ba/F3

[12] = biological target: T12, EGFR G719S T790M (Homo sapiens, UniProt P00533, G719S/T790M); conditions: T790M-like-3S, 72 hours
T12 construct: expressed in transfected cells; host or cells: Ba/F3

[13] = biological target: T13, EGFR A763insLQEA (Homo sapiens, UniProt P00533, INS763LQEA); conditions: Classical-Like, 72 hours
T13 construct: expressed in transfected cells; host or cells: Ba/F3 cells, retroviral pBabe-Puro vector

[14] = biological target: T14, EGFR E709K (Homo sapiens, UniProt P00533, E709K); conditions: PACC; E709K; Ba/F3; 72 hours
T14 construct: expressed in transfected cells; host or cells: Ba/F3
Protocol: as §1, §2, §3

[15] = biological target: T15, EGFR E709K G719S (Homo sapiens, UniProt P00533, E709K/G719S); conditions: PACC; E709K G719S; Ba/F3; 72 hours
T15 construct: expressed in transfected cells; host or cells: Ba/F3
Protocol: as §1, §2, §3

[16] = biological target: T16, EGFR L861Q (Homo sapiens, UniProt P00533, L861Q); conditions: Classical-Like, 72 hours
T16 construct: expressed in transfected cells; host or cells: Ba/F3 cells, retroviral pBabe-Puro vector
Protocol: (§4) Data represent the ratio of the IC50 value for a given TKI for cells with a classical-like EGFR mutation to the IC50 value for cells with wildtype EGFR.
as §2
(§5) After 48-72 hours of transduction, 2 μg/ml puromycin (Invitrogen) was added to Ba/F3 cell lines in complete RPMI. To select for EGFR positive cell lines, cells were stained with PE-EGFR (Biolegend) and sorted by FACS. After sorting, EGFR positive cells were maintained in RPMI containing 10% FBS, 1% penicillin/streptomycin, and 1 ng/ml EGF to support cell viability. […] Shortly, cells were plated in 384-well plates (Greiner Bio-One) at 2000-3000 cells per well in technical triplicate. Seven different concentrations of TKIs or DMSO vehicle were added to reach a final volume of 40 μL per well. After 72 hours, 11 μL of Cell Titer Glo (Promega) was added to each well. Plates were incubated for a minimum of 10 minutes, and bioluminescence was determined using a FLUOstar OPTIMA plate reader (BMG LABTECH). Raw bioluminescence values were normalized to DMSO control treated cells, and values were plotted in GraphPad Prism. […] Drug screens were performed in technical triplicate on each plate and either duplicate or triplicate biological replicates.

[17] = biological target: T17, EGFR G719S (Homo sapiens, UniProt P00533, G719S); conditions: PACC; G719S; Ba/F3; 72 hours
T17 construct: expressed in transfected cells; host or cells: Ba/F3
Protocol: as §1, §2, §3

[18] = biological target: T18, EGFR G719A T790M (Homo sapiens, UniProt P00533, G719A/T790M); conditions: T790M-like-3S, 72 hours
T18 construct: expressed in transfected cells; host or cells: Ba/F3

[19] = biological target: T19, EGFR E709A (Homo sapiens, UniProt P00533, E709A); conditions: PACC; E709A; Ba/F3; 72 hours
T19 construct: expressed in transfected cells; host or cells: Ba/F3

[20] = biological target: T20, EGFR L858R/C797S (Homo sapiens, UniProt P00533, C797S/L858R); conditions: PACC; L858R/C797S; Ba/F3; 72 hours
T20 construct: expressed in transfected cells; host or cells: Ba/F3

[21] = biological target: T21, EGFR A763insFQEA (Homo sapiens, UniProt P00533, INS763FQEA); conditions: Classical-Like, 72 hours
T21 construct: expressed in transfected cells; host or cells: Ba/F3 cells, retroviral pBabe-Puro vector
Protocol: as §4, §2, §5

[22] = biological target: T22, EGFR G719A (Homo sapiens, UniProt P00533, G719A); conditions: PACC; G719A; Ba/F3; 72 hours
T22 construct: expressed in transfected cells; host or cells: Ba/F3
Protocol: as §1, §2, §3

[23] = biological target: T23, EGFR Ex19del/C797S (Homo sapiens, UniProt P00533, C797S/DEL746-750); conditions: PACC; Ex19del/C797S; Ba/F3; 72 hours
T23 construct: expressed in transfected cells; host or cells: Ba/F3

[24] = biological target: T24, EGFR S768dupSVD (Homo sapiens, UniProt P00533, DUP768-770); conditions: Ex20, 72 hours
T24 construct: expressed in transfected cells; host or cells: Ba/F3 cells, retroviral pBabe-Puro vector
Protocol: Data represent the ratio of the IC50 value for a given TKI for cells with an ex20ins EGFR mutation to the IC50 value for cells with wildtype EGFR.
as §2
After 48-72 hours of transduction, 2 μg/ml puromycin (Invitrogen) was added to Ba/F3 cell lines in complete RPMI. To select for EGFR positive cell lines, cells were stained with PE-EGFR (Biolegend) and sorted by FACS. After sorting, EGFR positive cells were maintained in RPMI containing 10% FBS, 1% penicillin/streptomycin, and 1 ng/ml EGF to support cell viability. Drug screening was performed as previously described^41,42. Shortly, cells were plated in 384-well plates (Greiner Bio-One) at 2000-3000 cells per well in technical triplicate. Seven different concentrations of TKIs or DMSO vehicle were added to reach a final volume of 40 μL per well. After 72 hours, 11 μL of Cell Titer Glo (Promega) was added to each well. Plates were incubated for a minimum of 10 minutes, and bioluminescence was determined using a FLUOstar OPTIMA plate reader (BMG LABTECH). Raw bioluminescence values were normalized to DMSO control treated cells, and values were plotted in GraphPad Prism. […] Drug screens were performed in technical triplicate on each plate and either duplicate or triplicate biological replicates. […] Statistical differences between groups were determined by ANOVA as described in the figure legends.

[25] = biological target: T25, EGFR Ex19del L718V (Homo sapiens, UniProt P00533, DEL746-750/L718V); conditions: PACC; Ex19del L718V; Ba/F3; 72 hours
T25 construct: expressed in transfected cells; host or cells: Ba/F3
Protocol: as §1, §2, §3

[26] = biological target: T26, EGFR T790M (Homo sapiens, UniProt P00533, T790M); conditions: T790M-like-3S, 72 hours
T26 construct: expressed in transfected cells; host or cells: Ba/F3
Protocol: Data represent the ratio of the IC50 value for a given TKI for cells with a T790M-like-3S EGFR mutation to the IC50 value for cells with wildtype EGFR.
as §2, §3

[27] = biological target: T27, EGFR D761N (Homo sapiens, UniProt P00533, D761N); conditions: Classical-Like, 72 hours
T27 construct: expressed in transfected cells; host or cells: Ba/F3 cells, retroviral pBabe-Puro vector
Protocol: as §4, §2, §5

Structure (SMILES): CN(C)C/C=C/C(=O)Nc1cc2c(Nc3ccc(Cl)c(Br)c3)ncnc2cn1 [Tarlox-TKI]
- ratio of IC50 for cells with mutant EGFR to IC50 for cells with wildtype EGFR (Mut/WT) [1]: 1.421
- ratio of IC50 for cells with mutant EGFR to IC50 for cells with wildtype EGFR (Mut/WT) [2]: 5.198
- ratio of IC50 for cells with mutant EGFR to IC50 for cells with wildtype EGFR (Mut/WT) [3]: 14.38
- ratio of IC50 for cells with mutant EGFR to IC50 for cells with wildtype EGFR (Mut/WT) [4]: 0.3578
- ratio of IC50 for cells with mutant EGFR to IC50 for cells with wildtype EGFR (Mut/WT) [5]: 7.062
- ratio of IC50 for cells with mutant EGFR to IC50 for cells with wildtype EGFR (Mut/WT) [6]: 25.15
- ratio of IC50 for cells with mutant EGFR to IC50 for cells with wildtype EGFR (Mut/WT) [7]: 0.005792
- ratio of IC50 for cells with mutant EGFR to IC50 for cells with wildtype EGFR (Mut/WT) [8]: 8.499
- ratio of IC50 for cells with mutant EGFR to IC50 for cells with wildtype EGFR (Mut/WT) [9]: 33.62
- ratio of IC50 for cells with mutant EGFR to IC50 for cells with wildtype EGFR (Mut/WT) [10]: 0.02412
- ratio of IC50 for cells with mutant EGFR to IC50 for cells with wildtype EGFR (Mut/WT) [11]: 74.97
- ratio of IC50 for cells with mutant EGFR to IC50 for cells with wildtype EGFR (Mut/WT) [12]: 3.949
- ratio of IC50 for cells with mutant EGFR to IC50 for cells with wildtype EGFR (Mut/WT) [13]: 0.0269
- ratio of IC50 for cells with mutant EGFR to IC50 for cells with wildtype EGFR (Mut/WT) [14]: 0.03467
- ratio of IC50 for cells with mutant EGFR to IC50 for cells with wildtype EGFR (Mut/WT) [15]: 0.06517
- ratio of IC50 for cells with mutant EGFR to IC50 for cells with wildtype EGFR (Mut/WT) [16]: 0.05346
- ratio of IC50 for cells with mutant EGFR to IC50 for cells with wildtype EGFR (Mut/WT) [17]: 0.002634
- ratio of IC50 for cells with mutant EGFR to IC50 for cells with wildtype EGFR (Mut/WT) [18]: 0.6778
- ratio of IC50 for cells with mutant EGFR to IC50 for cells with wildtype EGFR (Mut/WT) [19]: 0.4803
- ratio of IC50 for cells with mutant EGFR to IC50 for cells with wildtype EGFR (Mut/WT) [20]: 0.7434
- ratio of IC50 for cells with mutant EGFR to IC50 for cells with wildtype EGFR (Mut/WT) [21]: 0.05463
- ratio of IC50 for cells with mutant EGFR to IC50 for cells with wildtype EGFR (Mut/WT) [22]: 0.01637
- ratio of IC50 for cells with mutant EGFR to IC50 for cells with wildtype EGFR (Mut/WT) [23]: 0.2272
- ratio of IC50 for cells with mutant EGFR to IC50 for cells with wildtype EGFR (Mut/WT) [24]: 0.3065
- ratio of IC50 for cells with mutant EGFR to IC50 for cells with wildtype EGFR (Mut/WT) [25]: 0.1214
- ratio of IC50 for cells with mutant EGFR to IC50 for cells with wildtype EGFR (Mut/WT) [26]: 4.92
- ratio of IC50 for cells with mutant EGFR to IC50 for cells with wildtype EGFR (Mut/WT) [27]: 0.1319
